How the values were obtained:
Experiment in all cases: Bliss excess, mean over the matrix (fraction); higher = more synergy
[1] = tested on: AN3-CA (Endometrial Carcinoma)
In short: (§1)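 Cell lines in DMEM/F12 or RPMI with 10% FBS were plated in 1536-well plates, held 24 hours at 37°C, 5% CO2, then given two-drug dose matrices for 72 hours (DMSO typically 0.2%). Viability was read by CellTiter-Glo 2.0 luminescence and scaled as inhibition from 0 (vehicle wells) to 1 (blank wells). Combination Emax is the second-highest inhibition in the matrix; Bliss excess is observed combination effect minus expected EA + EB − EA·EB, EA and EB being single-agent effects.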

[2] = tested on: AsPC-1 (Pancreatic Carcinoma)
In short: as §1

[3] = tested on: BALL-1 (B-Lymphoblastic Leukemia)
In short: as §1

[4] = tested on: COLO-684 (Endometrial Carcinoma)
In short: as §1

[5] = tested on: EB-3 (Burkitt's Lymphoma)
In short: as §1

[6] = tested on: HSC-3 (Oral Cavity Carcinoma)
In short: as §1

[7] = tested on: HTC-C3 (Thyroid Gland Carcinoma)
In short: as §1

[8] = tested on: KYM-1 (Rhabdomyosarcoma)
In short: as §1

[9] = tested on: KYSE-70 (Esophageal Squamous Cell Carcinoma)
In short: as §1

[10] = tested on: NCI-H1155 (Non-Small Cell Lung Carcinoma)
In short: as §1

[11] = tested on: NCI-H1755 (Lung Adenocarcinoma)
In short: as §1

[12] = tested on: NCI-H810 (Non-Small Cell Lung Carcinoma)
In short: as §1

[13] = tested on: OV-90 (Ovarian Carcinoma)
In short: as §1

[14] = tested on: OVTOKO (Ovarian Carcinoma)
In short: as §1

[15] = tested on: PC-14 (Lung Adenocarcinoma)
In short: as §1

[16] = tested on: RERF-LC-KJ (Lung Adenocarcinoma)
In short: as §1

[17] = tested on: RPMI-8866 (Chronic Myelogenous Leukemia)
In short: as §1

[18] = tested on: RT4 (Bladder Carcinoma)
In short: as §1

[19] = tested on: SJRH30 (Rhabdomyosarcoma)
In short: as §1

[20] = tested on: SNU-175 (Colorectal Carcinoma)
In short: as §1

Row | Structure (SMILES) | Bliss excess [1] | Bliss excess [2] | Bliss excess [3] | Bliss excess [4] | Bliss excess [5] | Bliss excess [6] | Bliss excess [7] | Bliss excess [8] | Bliss excess [9] | Bliss excess [10] | Bliss excess [11] | Bliss excess [12] | Bliss excess [13] | Bliss excess [14] | Bliss excess [15] | Bliss excess [16] | Bliss excess [17] | Bliss excess [18] | Bliss excess [19] | Bliss excess [20]
1 | COc1nnc2ccc(N3CCC(c4ccc(OCCN5CCN(C)C(=O)[C@H]5C)cc4)CC3)nn12 [AZD5153] + Cc1c2c(nn1C)CSCc1cc(n(C)n1)CSc1cc(c3ccccc3c1)OCCCc1c(C(=O)O)n(C)c3c-2c(Cl)ccc13 [AZD5991] (first compound max 1 µM, 7x7, partner max 1 µM) | -0.0205 | -0.0639 | -0.0409 | -0.0106 | -0.0048 | -0.0069 | -0.0441 | 0.0335 | -0.0652 | -0.0091 | -0.0785 | 0.0448 | -0.0389 | -0.0536 | -0.0145 | 0.006 | -0.0361 | 0.0009 | 0.0045 | 0.0113
2 | CC(=O)c1c(C)c2cnc(Nc3ccc(N4CCNCC4)cn3)nc2n(C2CCCC2)c1=O [Palbociclib] + Cc1c2c(nn1C)CSCc1cc(n(C)n1)CSc1cc(c3ccccc3c1)OCCCc1c(C(=O)O)n(C)c3c-2c(Cl)ccc13 [AZD5991] (first compound max 10 µM, 7x7, partner max 1 µM) | -0.0305 | -0.0859 | -0.0683 | -0.0173 | -0.0271 | -0.0811 | 0.0082 | 0.0337 | -0.0462 | -0.059 | -0.0188 | -0.0444 | -0.0568 | -0.0315 | -0.0106 | -0.0723 | -0.004 | -0.0244 | -0.0488 | -0.0496
3 | Cc1cc2ncnn2cc1Nc1ncc2c(n1)n(C1CCOCC1)c(=O)n2C [AZD7648] + CN(C)CCCOc1ccc(-c2ccc3ncc4c(c3c2)n(C2CCOCC2)c(=O)n4C)cn1 [AZD0156] (first compound max 10 µM, 7x7, partner max 1 µM) | -0.0224 | -0.0291 | -0.0108 | -0.0324 | -0.0867 | 0.0174 | 0.0024 | 0.0278 | 0.0213 | 0.0397 | 0.0118 | 0.0125 | -0.0374 | -0.0537 | 0.0186 | 0.0285 | -0.0363 | 0.0212 | 0.0105 | -0.0021
4 | Cc1c2c(nn1C)CSCc1cc(n(C)n1)CSc1cc(c3ccccc3c1)OCCCc1c(C(=O)O)n(C)c3c-2c(Cl)ccc13 [AZD5991] + Cc1cc2ncnn2cc1Nc1ncc2c(n1)n(C1CCOCC1)c(=O)n2C [AZD7648] (first compound max 1 µM, 7x7, partner max 10 µM) | -0.0411 | -0.0517 | -0.0064 | 0.0076 | -0.0379 | -0.0448 | -0.0558 | 0.0136 | 0.0024 | -0.017 | 0.0189 | -0.0484 | -0.039 | -0.0238 | -0.0088 | 0.0171 | -0.0497 | -0.0301 | -0.0214 | -0.0125
5 | C[C@@H](c1ccc2nccn2c1)n1nnc2ncc(-c3cnn(C)c3)nc21 [Savolitinib] + Cc1c2c(nn1C)CSCc1cc(n(C)n1)CSc1cc(c3ccccc3c1)OCCCc1c(C(=O)O)n(C)c3c-2c(Cl)ccc13 [AZD5991] (first compound max 1 µM, 7x7, partner max 1 µM) | -0.0365 | -0.118 | -0.052 | -0.0158 | -0.076 | -0.018 | -0.0373 | -0.0309 | -0.0339 | -0.0188 | -0.0361 | -0.0517 | -0.0519 | -0.0743 | -0.0134 | 0.012 | -0.0285 | 0.0148 | -0.0432 | -0.0713
6 | NC1(C(=O)N[C@@H](CCO)c2ccc(Cl)cc2)CCN(c2ncnc3[nH]ccc23)CC1 [Capivasertib] + CC(C)n1c(=O)n(C)c2cnc3cc(F)c(-c4ccc(OCCCN5CCCCC5)nc4)cc3c21 [AZD1390] (first compound max 10 µM, 7x7, partner max 0.3 µM) | -0.0057 | -0.0512 | -0.0292 | -0.0909 | 0.0022 | -0.0746 | -0.0216 | -0.0278 | -0.063 | -0.031 | -0.0407 | -0.0543 | -0.0325 | -0.0752 | -0.0168 | -0.0017 | 0.0503 | -0.0651 | -0.0373 | -0.0346
7 | CN(CCO)CC[C@H](CSc1ccccc1)Nc1ccc(S(=O)(=O)NC(=O)c2ccc(N3CCC([C@@H](O)c4ccccc4-c4ccc(Cl)cc4)CC3)cc2)cc1S(=O)(=O)C(F)(F)F [AZD4320] + C=CCn1c(=O)c2cnc(Nc3ccc(N4CCN(C)CC4)cc3)nc2n1-c1cccc(C(C)(C)O)n1 [AZD1775] (first compound max 1 µM, partner max 1 µM) | -0.0004 | 0.047 | 0.0065 | -0.0301 | -0.0269 | -0.0083 | 0.08 | 0.0515 | -0.0011 | 0.0675 | -0.0201 | 0.0105 | 0.0909 | 0.0002 | 0.0069 | -0.0076 | 0.0402 | 0.0755 | 0.0076 | -0.0371
8 | C=CCn1c(=O)c2cnc(Nc3ccc(N4CCN(C)CC4)cc3)nc2n1-c1cccc(C(C)(C)O)n1 [AZD1775] + O=C(c1cc(Cc2n[nH]c(=O)c3ccccc23)ccc1F)N1CCN(C(=O)C2CC2)CC1 [Olaparib] (first compound max 1 µM, partner max 10 µM) | 0.0003 | 0.0039 | 0.0054 | -0.12 | -0.0426 | 0.0013 | -0.0064 | 0.0188 | -0.0188 | 0.0355 | -0.0291 | -0.038 | -0.0424 | -0.0514 | -0.0248 | -0.035 | -0.0528 | 0.0107 | -0.0057 | -0.0028
9 | CC1(C)CCC(CN2CCN(c3ccc(C(=O)NS(=O)(=O)c4ccc(NCC5CCOCC5)c([N+](=O)[O-])c4)c(Oc4cnc5[nH]ccc5c4)c3)CC2)=C(c2ccc(Cl)cc2)C1 [Venetoclax] + C1CN(CCC1(C(=O)N[C@@H](CCO)C2=CC=C(C=C2)Cl)N)C3=NC=NC4=C3C=CN4 [Capivasertib] (first compound max 1 µM, 7x7, partner max 3 µM) | 0.0482 | -0.088 | 0.0213 | -0.0821 | -0.0683 | -0.0501 | -0.0418 | -0.0269 | -0.0102 | -0.0482 | -0.034 | -0.0663 | -0.0796 | -0.0546 | -0.038 | -0.0808 | -0.0224 | -0.0469 | -0.0008 | -0.06
10 | Cc1c2c(nn1C)CSCc1cc(n(C)n1)CSc1cc(c3ccccc3c1)OCCCc1c(C(=O)O)n(C)c3c-2c(Cl)ccc13 [AZD5991] + CC1(C)CCC(CN2CCN(c3ccc(C(=O)NS(=O)(=O)c4ccc(NCC5CCOCC5)c([N+](=O)[O-])c4)c(Oc4cnc5[nH]ccc5c4)c3)CC2)=C(c2ccc(Cl)cc2)C1 [Venetoclax] (first compound max 1 µM, 7x7, partner max 1 µM) | 0.111 | -0.0698 | 0.117 | -0.005 | -0.0151 | 0.005 | -0.0396 | 0.0117 | -0.0296 | -0.0079 | -0.0422 | -0.0267 | -0.0303 | -0.0027 | 0.0054 | 0.0047 | -0.0138 | 0.135 | 0.0289 | 0.107
11 | CC1(C)CCC(CN2CCN(c3ccc(C(=O)NS(=O)(=O)c4ccc(NCC5CCOCC5)c([N+](=O)[O-])c4)c(Oc4cnc5[nH]ccc5c4)c3)CC2)=C(c2ccc(Cl)cc2)C1 [Venetoclax] + Cc1cc2ncnn2cc1Nc1ncc2c(n1)n(C1CCOCC1)c(=O)n2C [AZD7648] (first compound max 1 µM, 7x7, partner max 10 µM) | -0.0108 | -0.0803 | -0.0008 | -0.0205 | -0.0225 | 0.0185 | -0.0197 | -0.0074 | -0.0003 | -0.041 | -0.025 | -0.028 | -0.0639 | -0.0518 | -0.0163 | -0.0564 | -0.026 | -0.0115 | 0.0112 | -0.0327
12 | C=CCn1c(=O)c2cnc(Nc3ccc(N4CCN(C)CC4)cc3)nc2n1-c1cccc(C(C)(C)O)n1 [AZD1775] + C1CN(CCC1(C(=O)N[C@@H](CCO)C2=CC=C(C=C2)Cl)N)C3=NC=NC4=C3C=CN4 [Capivasertib] (first compound max 3 µM, partner max 3 µM) | 0.0797 | -0.0654 | 0.0591 | -0.0937 | -0.111 | 0.0552 | -0.0653 | -0.0084 | -0.0193 | 0.0056 | -0.0691 | -0.0404 | -0.0235 | -0.0135 | -0.018 | -0.0117 | 0.0091 | -0.0355 | -0.0065 | 0.0244
13 | CC(=O)Nc1cccc(-n2c(=O)n(C3CC3)c(=O)c3c(Nc4ccc(I)cc4F)n(C)c(=O)c(C)c32)c1 [Trametinib] + Cc1nc(-c2cn3c(n2)-c2ccc(-c4cnn(C(C)(C)C(N)=O)c4)cc2OCC3)n(C(C)C)n1 [Taselisib] (first compound max 1 µM, 7x7, partner max 10 µM) | 0.0575 | 0.0654 | 0.142 | -0.0034 | 0.0489 | 0.15 | 0.113 | 0.0424 | 0.182 | 0.0426 | 0.115 | -0.052 | 0.0922 | 0.0659 | 0.163 | 0.0564 | 0.118 | 0.0566 | 0.076 | 0.0779
14 | CN(CCO)CC[C@H](CSc1ccccc1)Nc1ccc(S(=O)(=O)NC(=O)c2ccc(N3CCC([C@@H](O)c4ccccc4-c4ccc(Cl)cc4)CC3)cc2)cc1S(=O)(=O)C(F)(F)F [AZD4320] + C[C@@H](Nc1cc(F)cc(F)c1)c1cc(C(=O)N(C)C)cc2c(=O)cc(N3CCOCC3)oc12 [AZD8186] (first compound max 1 µM, 7x7, partner max 3 µM) | -0.0339 | -0.0141 | 0.0506 | 0.0193 | 0.0368 | 0.0482 | 0.0311 | 0.0193 | 0.0092 | 0.075 | 0.012 | -0.0461 | -0.0073 | 0.0019 | 0.0228 | 0.0703 | 0.0244 | 0.032 | 0.0718 | -0.0233

Source: the supplement of paper PMC11061612
